Laboratory results from patent US8741967B2, “Use of unsaturated sphingosine compounds as chemotherapeutic agents for the treatment of cancer” (Children's Hospital & Research Center at Oakland, priority 2007, dated 2014).
Entries after “also recorded” stand apart in the source; their conditions may differ. Each block holds one compound with its values, some of them ahead of it.

Tests used:
[1] = target: T1, murine Sphingosine Kinase 1 (SK1) (Mus musculus, UniProt Q8CI15); experiment: Phosphorylation by SK1 in extracts of HEK293 cells overexpressing SK1 (HPLC); format: biochemical; settings: cell extracts preincubated for 10 minutes
T1 construct: expressed in transfected cells; host or cells: HEK293
Experimental: The formed phosphorylated sphingoid base products were measured by HPLC.
In order to test if preincubation with C14-So or C14Δ4:6Sd has an inhibitory effect on the ability of the SK enzyme to phosphorylate the C17-So compound, cell extracts were preincubated for 10 minutes with either C14-So or C14Δ4:6Sd followed by C17-So.

HT29 cells [2] = experiment: Uptake and metabolism in HT29 colon cancer cells (LC-MS); format: in vitro ADME, human; settings: for conversion to the phosphorylated compound in intact cells / uptake rate compared with long chain sphingosine / uptake rate by cells / clearance / metabolism in cells after lipid removal: HT29, 10 μM; for conversion to the phosphorylated compound in intact cells: LC-MS; for uptake rate compared with long chain sphingosine: not shown; for uptake rate by cells: serum-free media; for clearance / metabolism in cells after lipid removal: then incubated without lipids for up to 6 hours
Experimental: In this example, the uptake and metabolism of C14 sphingadienes was compared with that of synthetic C17 sphingosine (as a substitute for endogenous C18 sphingosine which is already present in cells) and C14 sphingosine (to assess the importance of the second double bond) by HT29 colon cancer cells. Toward that end, cells were incubated with 10 μM sphingadiene in serum-free media, followed by cell harvest at various time points, lipid extraction and analysis by mass spectrometry of SD, SD-phosphate, C14 sphingosine and corresponding S1Ps.
HT29 cells were incubated for 0.25 hours, 0.5 hours and 1 hour in media containing 10 μM C14-So (Δ4) (sphingosine) or C14Δ4:6Sd (see FIG. 9A). HT29 cells were incubated for 1 hour in media containing 10 μM C14-So or C14Δ4:6Sd. Media was then removed and cells were incubated without lipids for 1, 3 and 6 hours (FIG. 9B). At each time point, cells were harvested, lipids were extracted and the cellular contents of C14-So or C14Δ4:6Sd and the corresponding phosphorylated compounds were analyzed by LC-MS.

[3] = target: T2, human Sphingosine-1-Phosphate Lyase (SPL) (Homo sapiens, UniProt O95470); experiment: Cleavage by SPL in HEK 293 cells overexpressing SPL; format: biochemical
T2 construct: expressed in transfected cells; host or cells: HEK 293
T2 sequence (O95470 1-568): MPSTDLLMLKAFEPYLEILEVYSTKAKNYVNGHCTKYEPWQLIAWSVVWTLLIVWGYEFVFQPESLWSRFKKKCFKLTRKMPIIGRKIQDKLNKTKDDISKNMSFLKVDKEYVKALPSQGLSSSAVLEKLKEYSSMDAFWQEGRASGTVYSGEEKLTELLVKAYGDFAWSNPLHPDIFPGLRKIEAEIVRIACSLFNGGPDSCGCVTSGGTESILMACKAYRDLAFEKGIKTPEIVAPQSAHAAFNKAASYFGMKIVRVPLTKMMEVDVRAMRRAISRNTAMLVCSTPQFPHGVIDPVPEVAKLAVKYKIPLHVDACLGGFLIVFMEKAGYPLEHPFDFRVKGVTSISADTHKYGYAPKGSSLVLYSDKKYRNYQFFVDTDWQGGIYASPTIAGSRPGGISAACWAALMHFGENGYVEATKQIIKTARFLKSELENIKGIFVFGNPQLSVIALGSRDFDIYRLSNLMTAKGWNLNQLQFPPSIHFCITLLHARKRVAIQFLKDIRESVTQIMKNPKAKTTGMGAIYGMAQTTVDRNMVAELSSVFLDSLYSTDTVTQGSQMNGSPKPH

4EBP [4] = experiment: 4EBP phosphorylation by western blotting in HT29 cells; format: cell-based, human; settings: HT29, 10 μM, 0.5 to 24 hours
Experimental: (§1) To address the possibility that sphingadienes might promote cell death by inhibiting the PI3K/AKT pathway, the effect of sphingadienes on phosphorylation of AKT, PTEN, and the AKT substrate 4EBP, which is a regulator of protein translation, was evaluated using immunoblotting of whole cell extracts.
(§2) HT29 cells were incubated with 10 μM C14Δ4:6Sd for 0.5, 1, 3, 6 and 24 hours and the level of Akt and 4EBP phosphorylation was evaluated at each time point by western blotting. […] The ratios of phosphorylated Akt to total Akt and of phosphorylated 4EBP to total 4EBP, were quantified by densitometry using ImageJ software (ImageJ is a public domain Java image processing program inspired by NIH Image; available at rsbweb.nih.gov/ij/index.html) and are shown in FIG. 7A and FIG. 7B, respectively.
(§3) In an additional experiment, HT29 cells were treated for various time periods with 10 μM C14Δ4:6Sd or C18Δ4:8Sd and the level of phosphorylation of Akt and 4EBP was evaluated by western blotting at 0.5, 1.0 and 3.0 hours. The results confirmed that sphingadienes inhibited phosphorylation of Akt and 4EBP, even at 0.5 hours of exposure, thus inhibiting signaling through Akt and 4EBP.

HT29 cells [5] = experiment: Caspase-3 activity assay (apoptosis) in HT29 colon cancer cells; format: cell-based, human
Experimental: To assess the effect of C14 sphingadienes on colon cancer cell viability, HT29, DLD1 and SW480 colon cancer cells (available from American Type Culture Collection (ATCC), Manassas, Va.) were propagated in DME-H21 plus 10% serum until ⅔ confluent. Media was then replaced with serum-free media containing 10 μM sphingadienes (SD). After 24 hours, cells were harvested, and whole cell extracts were prepared for caspase-3 activity assays. Caspase-3 activity was determined using substrate Ac-DEVD-pNA (Biomol, Plymouth Meeting, Pa.) as described (Oskouian, B., et al., Proc Natl Acad Sci USA 103: 17384-17389, 2006).
In an additional experiment, HT29 cells were treated with 10 μM sphingoid bases or ceramides and caspase-3 activity was determined at 24 hours.
HT29 cells transfected with constitutively active myristoylated Akt (myr-Akt) were treated with 10 μM C14Δ4:6Sd and caspase 3 activity was determined at 24 hours.
(§4) HT29 cells were incubated for 6 hours with 10 μM C14Δ4:6Sd and the translational activity of the cell cytosol was measured with the DUAL-LUCIFERASE® Reporter Assay System (Promega, Madison, Wis.). […] In another experiment, HT29 cells were pretreated with inhibitors of p38 (SB20350), MEK (PD98059), PI3K (LY294002) and JNK (JNK inhibitor 2) and caspase 3 activity was determined following an 18 hour incubation with 10 μM C14Δ4:6Sd.

SW480 cells [6] = experiment: Autophagy: GFP-LC3 fluorescence microscopy in SW480 cells; format: cell-based, human; settings: SW480 transfected with GFP-LC3, 5 μM, 4 h
Experimental: (§5) Autophagy is a cell process used to degrade components of the cytoplasm and functions as a cell survival mechanism during nutrient deprivation (P. Codogno and A J Meijer, Cell Death Differ. 2005 November; 12 Suppl 2:1509-18). […] In order to further investigate this phenomenon, LC3 (microtubule associated protein 1 light chain 3) was used as a marker for this process.
(§6) In one experiment, SW480 cells were transfected with a GFP-LC3 construct and treated for 4 h with 5 μM C14Δ4:6Sd. […] In another experiment, SW480 cells transfected with myr-Akt were treated with various concentrations of C14Δ4:6Sd and the amount of LC3 activation (shift from LC3-1 to LC3-2) was verified by western blotting.

Akt = Akt phosphorylation by western blotting in HT29 cells; format: cell-based, human; settings: HT29, 10 μM, 0.5 to 24 hours
Experimental: as §1, §2, §3

protein synthesis = experiment: Translational activity of HT29 cell cytosol (DUAL-LUCIFERASE Reporter Assay System); format: cell-based, human; settings: HT29, 10 μM, 6 hours
Experimental: as §4

LC3 = LC3 activation (LC3-1 to LC3-2 shift) by western blotting in SW480 cells transfected with myr-Akt; format: cell-based, human; settings: various concentrations
Experimental: as §5, §6

ApcMin/+ mice = experiment: Intestinal polyps in ApcMin/+ mice; format: in vivo; settings: gavage 2.5 mg/day, day 10, versus vehicle control
Experimental: (§7) Murine experiments were performed to investigate the in vivo effect of C14Δ4:6Sd on the development of polyps in intestinal tissue using an established animal model system having an inherited genetic defect underlying spontaneous multiple intestinal neoplasia (Min) (Polakis, 1997 Biochim Biophys. Acta. 1332:F127; Kucherlapati et al., 2001 Semin. Canc. Biol. 11:219; Sansom et al., 2004 Genes Dev. 18:1385). Ten 12 week-old male ApcMin/+ mice (available from Jackson Laboratory, Bar Harbor, Me.) were administered by gavage 2.5 mg/day C14Δ4:6Sd and ten mice received vehicle control. Mice were euthanized by CO2 asphyxiation and intestinal tissues harvested at day 10. Gross polyps were counted and measured (diameter). […] Polyps were further analyzed for phosphorylated 4EBP by western blotting and it was confirmed that sphingadienes inhibited 4EBP phosphorylation in vivo.

4EBP [7] = experiment: 4EBP phosphorylation by western blotting in SW480 cells; format: cell-based, human; settings: SW480, 10 μM, up to 5 hours
4EBP [8] = experiment: Phosphorylated 4EBP in polyps of ApcMin/+ mice by western blotting; format: in vivo; settings: gavage 2.5 mg/day, day 10
Experimental: as §7

HCT116 cells = experiment: Viability of HCT116 colon cancer cells; format: cell-based; settings: Homo sapiens, HCT-116; HCT116, 10 μM, 24 hours; read-out: viability, % of controls
Experimental: (§8) The human colon cancer cell lines, HT29, SW480, HCT116 and DLD1 were treated with 10 μM C14Δ4:6Sd (also referred to herein as 2-aminotetradeca-4,6-diene-1,3-diol) and viability was determined at 24 hours.

HT29 cells [9] = experiment: Viability of HT29 colon cancer cells; format: cell-based, human
Experimental: as §8
HT29 cells were then incubated with various sphingadiene compounds and viability was determined at 24 hours.
HT29 cells were incubated with various concentrations of C14Δ4:6Sd and viability was determined at 24 hours or incubated with 10 μM C14Δ4:6Sd and viability was determined at various time points.
In a further experiment, HT29 cells were treated with the PI3K inhibitor wortmannin and various concentrations of C14Δ4:6Sd and viability was determined at 24 hours by MTT assay. The results confirmed synergistic inhibition of […] by C14Δ4:6Sd and wortmannin (see FIG. 8C).

DLD1 cells = experiment: Viability of DLD1 colon cancer cells; format: cell-based; settings: Homo sapiens, DLD-1; DLD1, 10 μM, 24 hours; read-out: viability, % of controls
Experimental: as §8

SW480 cells [10] = experiment: Viability of SW480 colon cancer cells; format: cell-based; settings: Homo sapiens; SW480, 10 μM, 24 hours; read-out: viability, % of controls
Experimental: as §8

SK = experiment: Competition studies with sphingosine and SD on sphingosine kinase; settings: not shown, listed as C14 SD
[11] = HT29 pretreated with inhibitor, 18 hour incubation with 10 μM
[12] = HT29, various concentrations, 24 hours

T1 sequence (Q8CI15 whole entry): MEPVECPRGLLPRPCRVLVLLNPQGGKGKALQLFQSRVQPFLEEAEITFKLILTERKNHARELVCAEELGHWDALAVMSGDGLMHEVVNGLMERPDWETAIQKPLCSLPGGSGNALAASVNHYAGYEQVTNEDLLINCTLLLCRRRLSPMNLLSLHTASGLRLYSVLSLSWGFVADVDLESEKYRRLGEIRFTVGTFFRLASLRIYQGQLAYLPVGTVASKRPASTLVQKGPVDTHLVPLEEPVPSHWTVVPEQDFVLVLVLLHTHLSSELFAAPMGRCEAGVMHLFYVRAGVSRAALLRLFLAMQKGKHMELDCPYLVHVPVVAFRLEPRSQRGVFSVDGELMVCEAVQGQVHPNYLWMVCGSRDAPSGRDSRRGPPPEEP

inhibitory effect on phosphorylation of C17-So by SK [1]: no inhibitory effect was observed | conversion to the phosphorylated compound in intact cells (HT29 cells [2]): efficiently phosphorylated | uptake rate compared with long chain sphingosine (HT29 cells [2]): faster | uptake rate by cells (HT29 cells [2]): taken up at equal rates | clearance / metabolism in cells after lipid removal (HT29 cells [2]): completely metabolized
Compound: CCCCCCCCCCCCC/C=C/[C@@H](O)[C@@H](N)CO [C14-So, reference compound]
clearance / metabolism in cells after lipid removal (HT29 cells [2]; listed as C14 sphingosine): cleared from the cells in hours; also recorded: rapidly metabolized

Compound: CCCCCCCCCC=CC(O)C(N)COP(=O)(O)O (centres unmarked) [C14So-1P]
processing of C17So-1P following preincubation [3]: No significant difference

inhibitory effect on phosphorylation of C17-So by SK [1]: no inhibitory effect was observed | conversion to the phosphorylated compound in intact cells (HT29 cells [2]; listed as C14 SDs): not converted to SD-phosphates | uptake rate compared with long chain sphingosine (HT29 cells [2]): faster | uptake rate by cells (HT29 cells [2]): taken up at equal rates | clearance / metabolism in cells after lipid removal (HT29 cells [2]): remains unaltered | clearance / metabolism in cells after lipid removal (HT29 cells [2]; listed as C14 SDs): remained in the cells for many hours | time remaining in cells after lipid removal (HT29 cells [2]; HT29, FIG. 3): 6 h | inhibition of SK (SK): inhibit SK
Compound: CCCCCCC/C=C/C=C/C(O)C(N)CO (centres unmarked) [C14Δ4:6Sd, 2-aminotetradeca-4,6-diene-1,3-diol]
phosphorylation of 4EBP (4EBP [4]): inhibited | caspase 3 activity in combination with JNK inhibitor (JNK inhibitor 2) (HT29 cells [5]; [11]): not synergistic | caspase 3 activity in combination with MEK inhibitor (PD98059) (HT29 cells [5]; [11]): not synergistic | caspase 3 activity in combination with PI3K inhibitor LY294002 (HT29 cells [5]; [11]): synergistic | caspase 3 activity in combination with p38 inhibitor (SB20350) (HT29 cells [5]; [11]): not synergistic | caspase 3 activity / cell death in HT29 cells transfected with myr-Akt (HT29 cells [5]; constitutively active myristoylated Akt, 10 μM, 24 hours): protected against sphingadiene-induced cell death | autophagosome formation (GFP-LC3) (SW480 cells [6]): autophagosome formation | phosphorylation of Akt (Akt): inhibited | Luciferase activity (translational activity, protein synthesis) (protein synthesis): reduced by more than half | LC3 activation (shift from LC3-1 to LC3-2) (LC3): autophagic activity | size (diameter) of intestinal polyps (ApcMin/+ mice): reduced the size | number of intestinal polyps (ApcMin/+ mice; p<0.0027): significantly reduced | phosphorylation of 4EBP (4EBP [7]): reduced phosphorylation | 4EBP phosphorylation in polyps in vivo (4EBP [8]): inhibited | viability at 10 µM (HCT116 cells): > 50% | dose and time dependence of cytotoxicity (HT29 cells [9]; HT29, various concentrations at 24 hours or 10 μM at various time points): dose- and time-dependent | cytotoxicity (viability) (HT29 cells [9]; [12]): cytotoxic | viability in combination with PI3K inhibitor wortmannin (HT29 cells [9]; HT29, various concentrations, 24 hours, MTT assay): synergistic | viability at 10 µM (HT29 cells [9]; Homo sapiens, HT-29, HT29, 10 μM, 24 hours, read-out: viability, % of controls): < 50% | viability at 10 µM (DLD1 cells): < 50% | viability at 10 µM (SW480 cells [10]): < 50%

Compound: CCCCCC=CCCC=CC(O)C(N)CO (centres unmarked) [C14Δ4:8Sd]
cytotoxicity (viability) (HT29 cells [9]; [12]): cytotoxic

Compound: CCCCCCCCCCC/C=C/C=C/C(O)C(N)CO (centres unmarked) [C18Δ4:6Sd]
cytotoxicity (viability) (HT29 cells [9]; [12]): cytotoxic

Compound: CCCCCCCCC/C=C/CC/C=C/C(O)C(N)CO (centres unmarked) [C18Δ4:8Sd]
phosphorylation of 4EBP (4EBP [4]): inhibited | phosphorylation of Akt (Akt): inhibited | cytotoxicity (viability) (HT29 cells [9]; [12]): cytotoxic
